# Like-named read-outs stand apart in the source and are kept apart here.
# Assays:
# P. aeruginosa ATCC 27853 = assay: MIC, broth microdilution (CLSI); assay type: cell-based, Pseudomonas aeruginosa; settings: for MIC in combination with PAβN: + 25 µg/mL PAβN
# Procedure: (§1) All bacterial strains (see description and sources Table S1) were stored at −80 °C, and grown on tryptone soya agar (TSA) at 35 °C. The iron-deprived (ID)-MHBCA (cation-adjusted Muller-Hinton Broth, Becton Dickinson, Mississauga, ON, Canada) medium was prepared as reported by refs. [21],[50]. Briefly, MHBCA was treated with 10% Chelex® 50-100 mesh (Sigma) and stirred for 6 h at room temperature. The resin was removed by filtration. Divalent Ca^2+ (CaCl2), Mg^2+ (MgCl2), and Zn^2+(ZnSO4), were then added in the iron-depleted medium at 22, 12, and 1 μg/ml respectively. Finally, the pH was adjusted to 7.3, and the medium was sterilized with a 0.2-μm filter. Regular MHBCA (i.e., not treated with Chelex®) was used to compare the inhibitory activity of conjugates in iron-sufficient conditions.
# (§2) Minimal inhibitory concentrations (MICs) were performed using a broth microdilution technique according to the Clinical and Laboratory Standards Institute (CLSI) guidelines. MICs were determined in MHBCA and in ID-MHBCA. To check the impact of β-lactamases, MICs in the presence of a β-lactamase inhibitor were also determined. The inhibitor was homogenized at 2X the final concentration and added to the bacterial inoculum just before distributing cells into the wells containing the drug dilutions. The final concentration of each inhibitor was 4 μg/mL for clavulanic acid (tested against K. pneumoniae) and 200 μg/mL for 3-aminophenylboronic acid (tested against P. aeruginosa and A. baumannii).
# A. baumannii ATCC 19606 = assay: MIC, broth microdilution (CLSI); assay type: cell-based, Acinetobacter baumannii; settings: for MIC in combination with PAβN: + 25 µg/mL PAβN; for MIC ratio 0/1: 0 and 1 µg/mL supplemental iron (Table S2); for MIC ratio 1/0: 1 versus 0 µg/mL supplemental iron (peer review file table)
# Procedure: as §1, with “conditions. The resin used for Chelex treatment was always fresh and had never been regenerated, ensuring consistent iron removal.” for “conditions.”
# as §2
# E. coli lptD4213 = assay: MIC, hyperpermeable mutant; assay type: cell-based, Escherichia coli
# Procedure: as §1, with “conditions. The resin used for Chelex treatment was always fresh and had never been regenerated, ensuring consistent iron removal.” for “conditions.”
# as §2
# [1] = tested on: P. aeruginosa 2302 MexAB, MexCD, MexEF upregulated; assay: MIC, efflux pump overexpressing strain; assay type: cell-based, Pseudomonas aeruginosa
# Procedure: as §2
# PBP2 = biological target: T1, PBP2 (Escherichia coli, UniProt P0AD65); assay: Membrane PBP binding assay, competition with Bocillin FL; parameters: species or system E. coli MC4100
# T1 construct: using bacterial membranes as the source of PBPs; endogenous in cells; host or cells: E. coli MC4100 membrane preparation
# T1 sequence (P0AD65 whole entry): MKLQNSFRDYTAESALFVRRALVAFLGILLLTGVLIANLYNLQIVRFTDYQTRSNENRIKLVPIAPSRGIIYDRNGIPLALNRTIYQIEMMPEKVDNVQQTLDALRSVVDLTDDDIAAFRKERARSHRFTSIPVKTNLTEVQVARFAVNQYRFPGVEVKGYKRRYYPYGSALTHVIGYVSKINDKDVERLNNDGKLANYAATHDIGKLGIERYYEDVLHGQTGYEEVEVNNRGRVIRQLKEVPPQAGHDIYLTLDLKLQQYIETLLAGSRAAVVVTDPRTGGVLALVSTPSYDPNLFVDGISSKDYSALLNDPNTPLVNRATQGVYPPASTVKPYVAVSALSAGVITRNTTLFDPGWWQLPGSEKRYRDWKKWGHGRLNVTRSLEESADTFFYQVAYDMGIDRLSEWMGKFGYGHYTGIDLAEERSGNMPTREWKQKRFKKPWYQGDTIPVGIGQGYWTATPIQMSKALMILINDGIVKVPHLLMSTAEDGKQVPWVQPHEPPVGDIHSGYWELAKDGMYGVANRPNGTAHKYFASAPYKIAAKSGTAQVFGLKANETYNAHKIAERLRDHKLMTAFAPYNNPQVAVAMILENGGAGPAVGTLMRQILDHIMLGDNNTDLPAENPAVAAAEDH
# Procedure: (§3) Membrane extracts containing PBPs were obtained as described above. Briefly, all species were grown in 1 L of TSB until the OD600 reached 0.9. The washed pellet was incubated with lysozyme (400 μg/mL), DNase (10 μg/mL) RNase(10 μg/mL) and anti-protease cocktail (200 mg/20 mL). Lysis was done with a French press (20,000 psi) and membrane protein were pelleted by ultracentrifugation steps (100,000 × g). The pellet was suspended in a minimal volume (300–500 μL) of KP 0.05 M buffer at pH 7. The protein concentration in the membrane preparations was determined with the Micro BCA TM Protein Assay Kit (Thermo Fisher Scientific, Rockford, IL) using bovine serum albumin as a standard.
# (§4) The PBP binding assay was done as described previously[36],[56],[57]. For each antibiotic concentration tested, a quantity of 25 to 40 μg of membrane preparation was used as the source of PBPs, depending on the species. For the purified PaPBP3, 150 ng was used in the assay. First, increasing concentrations of the test antibiotic was added to the membrane or purified PaPBP3 preparations and incubated for 10 min at 30 °C. The reporter molecule Bocillin FL was then added at 12.5 μM for the membrane PBPs preparations and at 500 nM for the pure PaPBP3 samples for an additional 20 min at 30 °C. All reactions were stopped with the addition of the Laemmli-loading buffer (Bio-Rad) containing fresh β-mercaptoethanol (Sigma). All reactions were then heated at 100°C for 3 min before migration on SDS-polyacrylamide discontinuous gel system (7.5% stacking and 10% separating). Control samples without Bocillin FL were also included to highlight autofluorescent proteins that are not PBPs.
# (§5) To be able to visualize labeled PBPs after electrophoresis, gels were rinsed in water and fixed in a solution of 50% methanol and 7% acetic acid for 30 min. The fluorescent images of gels were obtained with the Typhoon FLA 9500 instrument (GE-Healthcare Bio-Sciences Inc., Baie-d’Urfé, QC, CA) using a 473 nm excitation wavelength. To obtain quantifiable data, the software Quantity One 1D analysis was used (version 4.6.6; Bio-Rad Laboratories, Richmond, CA). The volume (intensity × constant area) of each PBP was measured. […] All IC50 data were obtained from at least two independent PBP binding assays using two different sets of compound concentrations using a linear regression. The PBP profiles were confirmed, and the PBP numbering were determined using published data and individual molecular weights. […] For example, amdinocillin (Sigma) was used for PBP2 identification. […] The IC50 for PBP 2 of P. aeruginosa was measured by including the SDS-PAGE comigrating autofluorescent protein in the background, as done previously.
# PBP3 = biological target: T2, PBP3 (Escherichia coli, UniProt P0AD68); assay: as above; parameters: species or system E. coli MC4100
# T2 construct: using bacterial membranes as the source of PBPs; endogenous in cells; host or cells: E. coli MC4100 membrane preparation
# T2 sequence (P0AD68 whole entry): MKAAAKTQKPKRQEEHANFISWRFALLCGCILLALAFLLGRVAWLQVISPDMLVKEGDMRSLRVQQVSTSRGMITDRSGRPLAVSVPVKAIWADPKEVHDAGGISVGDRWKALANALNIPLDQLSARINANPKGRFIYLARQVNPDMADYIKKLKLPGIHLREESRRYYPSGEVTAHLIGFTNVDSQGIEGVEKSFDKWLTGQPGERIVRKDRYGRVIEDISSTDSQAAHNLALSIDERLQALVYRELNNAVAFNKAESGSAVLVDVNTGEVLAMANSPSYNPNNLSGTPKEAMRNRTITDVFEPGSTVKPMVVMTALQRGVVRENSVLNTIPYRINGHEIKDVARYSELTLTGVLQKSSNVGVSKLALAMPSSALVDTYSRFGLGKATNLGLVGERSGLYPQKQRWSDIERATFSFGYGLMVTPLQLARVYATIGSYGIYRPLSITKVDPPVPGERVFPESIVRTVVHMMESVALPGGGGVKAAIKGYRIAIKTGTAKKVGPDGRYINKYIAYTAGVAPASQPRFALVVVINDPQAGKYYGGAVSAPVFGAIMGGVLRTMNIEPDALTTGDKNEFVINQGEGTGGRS
# Procedure: as §3, §4, §5
# [2] = ID-MHBCA (−), 0 µg/mL supplemental iron, read-out: MIC
# [3] = MHBCA (+), no inhibitor, read-out: MIC
# [4] = Pseudomonas aeruginosa, ATCC27853, ID-MHBCA (−), 0 µg/mL supplemental iron, read-out: MIC
# [5] = Pseudomonas aeruginosa, ATCC27853, ID-MHBCA + 1 µg/mL supplemental iron, read-out: MIC
# [6] = Pseudomonas aeruginosa, ATCC27853, ID-MHBCA, + 200 μg/mL APB, read-out: MIC with β-lactamase inhibitor (βI)
# [7] = Pseudomonas aeruginosa, ATCC27853, MHBCA (+), no inhibitor, read-out: MIC
# [8] = Pseudomonas aeruginosa, ATCC27853, MHBCA, + 200 μg/mL 3-aminophenylboronic acid (APB), read-out: MIC with β-lactamase inhibitor (βI)
# [9] = Acinetobacter baumannii, ATCC19606, ID-MHBCA (−), 0 µg/mL supplemental iron, read-out: MIC
# [10] = Acinetobacter baumannii, ATCC19606, ID-MHBCA + 1 µg/mL supplemental iron, read-out: MIC
# [11] = Acinetobacter baumannii, ATCC19606, ID-MHBCA, + 200 μg/mL APB, read-out: MIC with β-lactamase inhibitor (βI)
# [12] = Acinetobacter baumannii, ATCC19606, MHBCA (+), no inhibitor, read-out: MIC
# [13] = Acinetobacter baumannii, ATCC19606, MHBCA, + 200 μg/mL APB, read-out: MIC with β-lactamase inhibitor (βI)
# [14] = Escherichia coli, LPTD4213, lptD4213, ID-MHBCA (−)
# [15] = Escherichia coli, LPTD4213, lptD4213, MHBCA (+)
# [16] = E. coli MC4100 membranes, read-out: IC50 PBP2
# [17] = E. coli MC4100 membranes, read-out: IC50 PBP3
# [18] = Pseudomonas aeruginosa, ATCC27853, ID-MHBCA + 0.1 µg/mL supplemental iron, read-out: MIC
# [19] = Acinetobacter baumannii, ATCC19606, ID-MHBCA + 0.1 µg/mL supplemental iron, read-out: MIC
# [20] = ID-MHBCA + 1 µg/mL supplemental iron, read-out: MIC
# [21] = ID-MHBCA, + 200 μg/mL APB, read-out: MIC with β-lactamase inhibitor (βI)
SMILES,MIC (P. aeruginosa ATCC 27853; [2]),MIC (P. aeruginosa ATCC 27853; [3]),MIC in combination with PAβN (P. aeruginosa ATCC 27853; MHBCA),MIC (P. aeruginosa ATCC 27853; [4]),MIC (P. aeruginosa ATCC 27853; [5]),MIC (P. aeruginosa ATCC 27853; [6]),MIC (P. aeruginosa ATCC 27853; [7]),MIC (P. aeruginosa ATCC 27853; [8]),MIC (A. baumannii ATCC 19606; [9]),MIC (A. baumannii ATCC 19606; [10]),MIC (A. baumannii ATCC 19606; [11]),MIC (A. baumannii ATCC 19606; [12]),MIC (A. baumannii ATCC 19606; [13]),MIC (A. baumannii ATCC 19606; [2]),MIC in combination with PAβN (A. baumannii ATCC 19606; MHBCA),MIC (E. coli lptD4213; [14]),MIC (E. coli lptD4213; [15]),MIC ([1]; Pseudomonas aeruginosa),IC50 (PBP2; [16]),IC50 (PBP3; [17]),also measured
"CC1(C)S[C@@H]2[C@H](NC(=O)[C@H](N)c3ccccc3)C(=O)N2[C@H]1C(=O)O [AMP, ampicillin, reference compound]",>200 µM,>200 µM,> 200 µM,> 200 µM,> 200 µM,100 µM,> 200 µM,100 µM,> 200 µM,> 200 µM,> 200 µM,> 200 µM,> 200 µM,>200 µM,> 200 µM,0.4 µM,0.4 µM,> 200 µM,11.4 ± 2.4 µM,1.92 ± 0.94 µM,"MIC (A. baumannii ATCC 19606; [3]): >200 µM; MIC (E. coli lptD4213; lptD4213, MHBCA (+)): 0.4 µM"
"CC1(C)SC2C(NC(=O)C(NC(=O)CN(CCCCNC(=O)c3cccc(O)c3O)C(=O)c3cccc(O)c3O)c3ccccc3)C(=O)N2C1C(=O)O (stereo not drawn) [BAMP, bis-catechol (azotochelin)-ampicillin]",–,–,0.2 µM,0.1 µM,13 µM,0.1 µM,1.6 µM,1.6 µM,0.2 µM,1.6 µM,0.1 µM,0.4 µM,0.2 µM,–,> 6.3 µM,0.024 µM,0.05 µM,0.4 µM,2.26 ± 0.57 µM,0.091 ± 0.007 µM,"potentiation of activity (MIC decrease) by PAβN (P. aeruginosa ATCC 27853; 25 µg/mL PAβN): 8 fold; MIC ratio unconjugated β-lactam/conjugate (P. aeruginosa ATCC 27853; ID-MHBCA): >2048; MIC ratio 0/1 (P. aeruginosa ATCC 27853; ID-MHBCA, 0 and 1 µg/mL supplemental iron (Table S2)): 128; MIC ratio 1/0 (P. aeruginosa ATCC 27853; ID-MHBCA, 1 versus 0 µg/mL supplemental iron (peer review file table)): 128; MIC ratio unconjugated β-lactam/conjugate (P. aeruginosa ATCC 27853; MHBCA): >128; MIC (P. aeruginosa ATCC 27853; [18]): 0.8 µM; MIC (A. baumannii ATCC 19606; [19]): 0.4 µM; MIC ratio unconjugated β-lactam/conjugate (A. baumannii ATCC 19606; ID-MHBCA): >1024; MIC ratio 0/1 (A. baumannii ATCC 19606; ID-MHBCA): 8; MIC ratio 1/0 (A. baumannii ATCC 19606; ID-MHBCA): 8; MIC ratio unconjugated β-lactam/conjugate (A. baumannii ATCC 19606; MHBCA): >512"
"O=C(CN(CCCCNC(=O)c1cccc(O)c1O)C(=O)c1cccc(O)c1O)NC(C(=O)NC1C(=O)N2C(C(=O)O)=C(Cl)CCC12)c1ccccc1 (stereo not drawn) [BLOR, bis-catechol (azotochelin)-loracarbef]",>200 µM,–,> 200 µM,> 200 µM,> 200 µM,0.8 µM,13 µM,6.3 µM,0.024 µM,0.4 µM,0.012 µM,0.05 µM,0.012 µM,–,> 6.3 µM,0.006 µM,0.006 µM,13 µM,> 50 µM,0.075 ± 0.011 µM,"MIC ratio unconjugated β-lactam/conjugate (P. aeruginosa ATCC 27853; ID-MHBCA): No activity; MIC ratio unconjugated β-lactam/conjugate (P. aeruginosa ATCC 27853; MHBCA): >16; MIC (P. aeruginosa ATCC 27853; [18]): > 200 µM; MIC (A. baumannii ATCC 19606; [19]): 0.1 µM; MIC ratio 0/1 (A. baumannii ATCC 19606; ID-MHBCA): 16; MIC ratio 1/0 (A. baumannii ATCC 19606; ID-MHBCA): 16; MIC ratio unconjugated β-lactam/conjugate (A. baumannii ATCC 19606; MHBCA): >4096; IC50 value ratio βL/SID-βL, PBP3 (PBP3; E. coli MC4100): 199"
"N[C@@H](C(=O)N[C@@H]1C(=O)N2C(C(=O)O)=C(Cl)CS[C@H]12)c1ccccc1 [CEF, cefaclor, reference compound]",>200 µM,>200 µM,> 200 µM,> 200 µM,> 200 µM,> 200 µM,> 200 µM,> 200 µM,> 200 µM,> 200 µM,> 200 µM,> 200 µM,> 200 µM,>200 µM,> 200 µM,3.1 µM,3.1 µM,> 200 µM,–,–,MIC (A. baumannii ATCC 19606; [3]): >200 µM; IC50 (PBP2): > 50 µM; IC50 (PBP3): 15.4 ± 0.9 µM
"N[C@@H](C(=O)N[C@@H]1C(=O)N2C(C(=O)O)=C(Cl)CC[C@H]12)c1ccccc1 [LOR, loracarbef, reference compound]",>200 µM,>200 µM,> 200 µM,–,–,–,–,–,–,–,–,–,–,>200 µM,> 200 µM,–,–,–,> 50 µM,14.9 ± 4.3 µM,"MIC (P. aeruginosa ATCC 27853; [20]): > 200 µM; MIC (P. aeruginosa ATCC 27853; [21]): >200 µM; MIC (P. aeruginosa ATCC 27853; MHBCA, + 200 μg/mL 3-aminophenylboronic acid (APB), read-out: MIC with β-lactamase inhibitor (βI)): >200 µM; MIC (A. baumannii ATCC 19606; [20]): > 200 µM; MIC (A. baumannii ATCC 19606; [21]): >200 µM; MIC (A. baumannii ATCC 19606; [3]): >200 µM; MIC (A. baumannii ATCC 19606; MHBCA, + 200 μg/mL APB, read-out: MIC with β-lactamase inhibitor (βI)): >200 µM; MIC (E. coli lptD4213; lptD4213, ID-MHBCA (−)): 1.6 µM; MIC (E. coli lptD4213; lptD4213, MHBCA (+)): 1.6 µM; MIC ([1]; P. aeruginosa 2302): > 200 µM"

# Source: PMC12592502, “Unraveling the mechanisms behind the enhanced efficacy of β-lactam-based sideromycins” (Communications Biology, 2025)
